Where “and” joins values, the source holds several entries; their conditions need not be identical. Identical values can stand only once. Counter-ions that a name gives are not always drawn.
Test: Phase I clinical trial: plasma concentrations after weekly intravenous infusion (pharmacokinetics)
Type: in vivo, human
Conditions: LLOQ 1 ng/mL; for Plasma Concentrations 2 HR: 2 hr after infusion; for Plasma Concentrations 4 HR: 4 hr after infusion; for Plasma Concentrations 6 HR: 6 hr after infusion; for Plasma Concentrations 12 HR: 12 hr after infusion; for Plasma Concentrations 24 HR: 24 hr after infusion; for Plasma Concentrations EOI: end of infusion; for Plasma Concentrations PREDOSE: Day 15 (third weekly dose)
Description: An open-label, dose-escalating, multiple-dose study to define the safety, tolerability and pharmacokinetics of weekly intravenous administration of (4-Methoxy-phenyl)-methyl-(2-methyl-quinazolin-4-yl)-amine hydrochloride was performed. A dosing schedule (each 4 week cycle) was performed for (4-Methoxy-phenyl)-methyl-(2-methyl-quinazolin-4-yl)-amine hydrochloride weekly for 3 weeks with no infusion on the fourth week of each cycle. Subjects with refractory solid tumors were enrolled in cohorts of 3. During Cycle 1, subjects were hospitalized during each infusion of (4-Methoxy-phenyl)-methyl-(2-methyl-quinazolin-4-yl)-amine hydrochloride and remained for observation and safety evaluation for approximately 24 hours following the end of the infusion. All subjects had continuous telemetry for 2 hours prior to infusion, for 1-2 hour infusion and for 3 hours after the end of the infusion. Any clinically significant electrocardiographic (ECG) wave form abnormality was recorded and prolongation of the monitoring period extended at the discretion of the principal investigator.
Blood samples were collected prior to dosing, at the end of the infusion, and 1, 2, 4, 6, 12, and 24 hours after the infusion. This sampling schedule occurred on Days 1 and 15 with administration of the first and third doses. Samples were collected into tubes containing EDTA and stored on ice until centrifuged. The plasma was frozen at approximately −20° C. in labeled, plastic tubes, or vials, and tightly capped. The samples were shipped to Myriad Pharmaceuticals, Inc. for analysis of (4-Methoxy-phenyl)-methyl-(2-methyl-quinazolin-4-yl)-amine hydrochloride. Pharmacokinetic analysis was conducted using WinNonlin 4.0®.

[1] = Day 1, 0.3 mg/m^2 i.v., infusion 1 hr
[2] = Day 1, 2.1 mg/m^2 i.v., infusion 1 hr, hydrochloride
[3] = Day 1, 2.7 mg/m^2 i.v., infusion 1 hr, hydrochloride
[4] = Day 1, 3.3 mg/m^2 i.v., infusion 2 hr, hydrochloride
[5] = Day 15, 0.3 mg/m^2 i.v., infusion 1 hr
[6] = Day 15, 1.0 mg/m^2 i.v., infusion 1 hr, hydrochloride
[7] = Day 15, 1.0 mg/m^2 i.v., infusion 1 hr
[8] = Day 15, 3.9 mg/m^2 i.v., infusion 2 hr, hydrochloride

Q: Which “Plasma Concentrations 1 HR” value (Day 1, 0.3 mg/m^2 i.v., infusion 1 hr, 1 hr after infusion, hydrochloride) does the source give for `COc1ccc(N(C)c2nc(C)nc3ccccc23)cc1` [(4-Methoxy-phenyl)-methyl-(2-methyl-quinazolin-4-yl)-amine hydrochloride] here?
A: The value was 1.17 ng/mL and 1.25 ng/mL.

Q: And the “Plasma Concentrations 2 HR” value [1]?
A: Its value is “BQL”.

Q: What about the “Plasma Concentrations 4 HR” value [1] of the same molecule?
A: Its value is “BQL”.

Q: What about the “Plasma Concentrations 6 HR” value [1] of the same molecule?
A: The value was “BQL”.

Q: And the “Plasma Concentrations 12 HR” value [1]?
A: Its value is “BQL”.

Q: What about the “Plasma Concentrations 24 HR” value [1] of the same molecule?
A: The value was “BQL”.

Q: And the “Plasma Concentrations EOI” value (Day 1, 0.3 mg/m^2 i.v., infusion 1 hr, hydrochloride)?
A: The value was 1.77 ng/mL and 1.52 ng/mL and 2.43 ng/mL.

Q: And the “Plasma Concentrations 24 HR” value (Day 1, 1.5 mg/m^2 i.v., infusion 1 hr)?
A: The value was “BQL”.

Q: What about the “Plasma Concentrations 1 HR” value (Day 1, 2.1 mg/m^2 i.v., infusion 1 hr, 1 hr after infusion, hydrochloride) of the same molecule?
A: Its value is 5.53 ng/mL and 3.75 ng/mL.

Q: And the “Plasma Concentrations 2 HR” value [2]?
A: Its value is 4.78 ng/mL and 3.94 ng/mL.

Q: What about the “Plasma Concentrations 4 HR” value [2] of the same molecule?
A: Its value is 2.69 ng/mL and 2.41 ng/mL.

Q: What about the “Plasma Concentrations 6 HR” value [2] of the same molecule?
A: The value was 1.62 ng/mL and 1.18 ng/mL.

Q: And the “Plasma Concentrations 24 HR” value (Day 1, 2.1 mg/m^2 i.v., infusion 1 hr)?
A: Its value is “BQL”.

Q: What about the “Plasma Concentrations 1 HR” value (Day 1, 2.7 mg/m^2 i.v., infusion 1 hr, 1 hr after infusion, hydrochloride) of the same molecule?
A: Its value is 4.69 ng/mL.

Q: What about the “Plasma Concentrations 2 HR” value [3] of the same molecule?
A: The value was 4.03 ng/mL and 5.54 ng/mL.

Q: What about the “Plasma Concentrations 4 HR” value [3] of the same molecule?
A: Its value is 2.33 ng/mL and 3.91 ng/mL.

Q: What about the “Plasma Concentrations 6 HR” value [3] of the same molecule?
A: The value was 1.68 ng/mL and 3.11 ng/mL.

Q: What about the “Plasma Concentrations EOI” value [3] of the same molecule?
A: The value was 10.42 ng/mL and 11.10 ng/mL and 7.52 ng/mL.

Q: What about the “Plasma Concentrations 2 HR” value [4] of the same molecule?
A: The value was 10.37 ng/mL and 8.81 ng/mL and 5.19 ng/mL.

Q: What about the “Plasma Concentrations EOI” value [4] of the same molecule?
A: The value was 8.67 ng/mL and 11.97 ng/mL and 13.37 ng/mL and 16.77 ng/mL.

Q: What about the “Plasma Concentrations PREDOSE” value (0.3 mg/m^2 i.v., infusion 1 hr) of the same molecule?
A: Its value is “BQL”.

Q: What about the “Plasma Concentrations PREDOSE” value (0.6 mg/m^2 i.v., infusion 1 hr) of the same molecule?
A: The value was “BQL”.

Q: What about the “Plasma Concentrations PREDOSE” value (1.0 mg/m^2 i.v., infusion 1 hr) of the same molecule?
A: Its value is “BQL”.

Q: What about the “Plasma Concentrations PREDOSE” value (1.5 mg/m^2 i.v., infusion 1 hr) of the same molecule?
A: Its value is “BQL”.

Q: What about the “Plasma Concentrations PREDOSE” value (2.1 mg/m^2 i.v., infusion 1 hr) of the same molecule?
A: Its value is “BQL”.

Q: And the “Plasma Concentrations PREDOSE” value (2.7 mg/m^2 i.v., infusion 1 hr)?
A: Its value is “BQL”.

Q: What about the “Plasma Concentrations PREDOSE” value (3.3 mg/m^2 i.v., infusion 2 hr) of the same molecule?
A: The value was “BQL”.

Q: What about the “Plasma Concentrations 2 HR” value [5] of the same molecule?
A: The value was “BQL”.

Q: And the “Plasma Concentrations 4 HR” value [5]?
A: The value was “BQL”.

Q: And the “Plasma Concentrations 6 HR” value [5]?
A: Its value is “BQL”.

Q: What about the “Plasma Concentrations 12 HR” value [5] of the same molecule?
A: The value was “BQL”.

Q: And the “Plasma Concentrations 24 HR” value [5]?
A: Its value is “BQL”.

Q: What about the “Plasma Concentrations 1 HR” value (Day 15, 1.0 mg/m^2 i.v., infusion 1 hr, 1 hr after infusion, hydrochloride) of the same molecule?
A: The value was 2.51 ng/mL.

Q: What about the “Plasma Concentrations 2 HR” value [6] of the same molecule?
A: The value was 2.15 ng/mL.

Q: What about the “Plasma Concentrations 6 HR” value [7] of the same molecule?
A: The value was “BQL”.

Q: And the “Plasma Concentrations 12 HR” value [7]?
A: Its value is “BQL”.

Q: And the “Plasma Concentrations 24 HR” value [7]?
A: The value was “BQL”.

Q: And the “Plasma Concentrations EOI” value [6]?
A: The value was 8.27 ng/mL and 7.82 ng/mL.

Q: And the “Plasma Concentrations 4 HR” value (Day 15, 1.5 mg/m^2 i.v., infusion 1 hr, hydrochloride)?
A: Its value is 1.60 ng/mL and 1.40 ng/mL and 1.30 ng/mL.

Q: What about the “Plasma Concentrations 1 HR” value (Day 15, 2.1 mg/m^2 i.v., infusion 1 hr, 1 hr after infusion, hydrochloride) of the same molecule?
A: Its value is 6.21 ng/mL and 7.19 ng/mL.

Q: What about the “Plasma Concentrations 4 HR” value (Day 15, 2.1 mg/m^2 i.v., infusion 1 hr, hydrochloride) of the same molecule?
A: The value was 3.79 ng/mL.

Q: What about the “Plasma Concentrations 1 HR” value (Day 15, 3.3 mg/m^2 i.v., infusion 1 hr, 1 hr after infusion, hydrochloride) of the same molecule?
A: The value was 9.00 ng/mL and 17.56 ng/mL and 15.17 ng/mL.

Q: What about the “Plasma Concentrations 1 HR” value (Day 15, 3.3 mg/m^2 i.v., infusion 2 hr, 1 hr after infusion, hydrochloride) of the same molecule?
A: Its value is 12.21 ng/mL and 6.40 ng/mL and 7.21 ng/mL.

Q: And the “Plasma Concentrations 2 HR” value (Day 15, 3.3 mg/m^2 i.v., infusion 2 hr, hydrochloride)?
A: Its value is 7.50 ng/mL and 5.52 ng/mL and 4.16 ng/mL.

Q: What about the “Plasma Concentrations 1 HR” value (Day 15, 3.9 mg/m^2 i.v., infusion 2 hr, 1 hr after infusion, hydrochloride) of the same molecule?
A: The value was 10.97 ng/mL and 12.15 ng/mL and 7.79 ng/mL and 9.85 ng/mL.

Q: What about the “Plasma Concentrations 2 HR” value [8] of the same molecule?
A: The value was 8.48 ng/mL and 14.58 ng/mL and 7.36 ng/mL and 8.35 ng/mL.

Q: And the “Plasma Concentrations 4 HR” value [8]?
A: The value was 9.13 ng/mL and 7.84 ng/mL and 10.17 ng/mL and 6.81 ng/mL.

Q: What about the “Plasma Concentrations 1 HR” value (Day 15, 4.5 mg/m^2 i.v., infusion 2 hr, 1 hr after infusion, hydrochloride) of the same molecule?
A: Its value is 17.94 ng/mL and 11.45 ng/mL and 10.03 ng/mL.

Q: And the “Plasma Concentrations 2 HR” value (Day 15, 4.5 mg/m^2 i.v., infusion 2 hr, hydrochloride)?
A: The value was 14.46 ng/mL and 12.32 ng/mL and 8.11 ng/mL.

Q: What about the concentration at 1 h after end of infusion (human, plasma, iv, 0.3 mg/m^2, Day 1, 0.3 mg/m^2 i.v., infusion 1 hr, 1 hr after infusion) of the same molecule?
A: The concentration at 1 h after end of infusion was 1.03 ng/mL.

Source: US20100087457A1, “DOSAGES AND METHODS FOR THE TREATMENT OF CANCER” (Myriad Pharmaceuticals, Inc, priority 2007, published 2010)
